We go through 19 molecules from patent publication US6528510B1, “HIV protease inhibitors” (Warner-Lambert Company, priority 1998, dated 2003).

Structures are written as SMILES. Where two headings read alike, the source gives them in different places. A value given as a limit tells only on which side of the number the result lay.

Series [1] relates to HIV infected lymphocyte derived CEM cells. The series can be described thus: Cellular infection assay in CEM cells, XTT cytopathic procedure (EC50). Particulars: for TI (therapeutic index, TC50/EC50): CEM cells; for EC50: Human immunodeficiency virus 1, CCRF-CEM, read-out: Antiviral Efficacy EC50. How it is done:
(§1) Compound concentrations were 0.32, 1, 3.2, 10, 32, and 100 uM.
(In general: Tetrazolium assays rely on reduction of a dye to a coloured formazan, in cell work by metabolically active cells.)

A short description of series [2]: Cellular toxicity in uninfected CEM cells, XTT (TC50). The conditions noted are these: human, uninfected CEM cells (lymphocyte derived). How it is done: as §1
In series [3] the target is T1, Recombinant HIV-1 protease (Human immunodeficiency virus type 1 group M subtype B, UniProt P04585).
T1 construct: Recombinant HIV-1 protease (>96% purity); purchased Bachem Bioscience, Inc. (King of Prussia, Pa.)
The series can be described thus: HIV protease assay (Ki determination, HPLC readout of substrate III cleavage). The format is biochemical. Here is the method:
Recombinant HIV-1 protease (>96% purity) and HIV protease substrate III (the undecapeptide H-His-Lys-Ala-Arg-Val-Leu-Nph-Glu-Ala-Nle-Ser-NH2, 97% purity) were purchased from Bachem Bioscience, Inc. (King of Prussia, Pa.).
The methods employed follow the procedures of Tummino, et al., Archives of Biochemistry and Biophysics, 1995;316:523). […] (total volume, […]). […] The final inhibitor concentrations used were 0 (0.1, 0.2, in some experiments), 0.5, 1, 2, 5, 10, 20, 50, and 100 μM. The solution was mixed, incubated for 5 minutes and the reaction quenched by addition of trifluoracetic acid, 2% final. The (leu-p-nitro-phe) bond of the substrate is cleaved by the enzyme and substrate arid products separated by reverse-phase HPLC. Absorbance was measured at 220 nm, peak areas determined, and percentage conversion to product used to calculate percentage control (=[% conversion (+inhibitor)/% conversion (−inhibitor)]×100).

The mark [4] stands for this setting: recombinant HIV-1 protease, read-out: Inhib of HIV Protease KI.

For orientation: EC50 means the concentration needed to bring the measured effect to its halfway point. Usually CC50 stands for the concentration that lowers cell viability or growth by half. Higher therefore signals better tolerance by the cells. In general, Ki refers to a dissociation constant, usually derived from enzyme kinetics or from competition with a known ligand. Consider `Cc1cc(SC2=C(O)CC(CCc3ccc4[nH]ccc4c3)(C(C)C)OC2=O)c(C(C)(C)C)cc1CO` (racemic) [Example 61, 3-(2-tert-Butyl-4-hydroxymethyl-5-methyl-phenylsulfanyl)-4-hydroxy-6-[2-(1H-indol-5-yl)-ethyl]-6-isopropyl-5,6-dihydro-pyran-2-one], for which, in series [1], the “TI (therapeutic index, TC50/EC50)” value is 68 and the EC50 worked out at 680 nM. Moreover, it took 46000 nM to reach half-maximal cytotoxicity in series [2] (CC50). In addition, the Ki in series [3] came out at 0.98 nM.
Take `Cc1cc(SC2=C(O)CC(CCc3ccncc3)(C(C)C)OC2=O)c(C(C)(C)C)cc1CO` (stereo not shown) [Example 1, 3-(2-tert-Butyl-4-hydroxymethyl-5-methyl-phenylsulfanyl)-4-hydroxy-6-isopropyl-6-(2-pyridin-4-yl-ethyl)-5,6-dihydro-pyran-2-one]: in series [1], the “TI (therapeutic index, TC50/EC50)” value is on record as 197 and the EC50 stood at 1500 nM. Further, the half-maximal cytotoxic concentration (CC50) in series [2] stood at 296000 nM. The Ki in series [3] (setting [4]) worked out at 1.5 nM.
`Cc1ccc(C(C)(C)C)c(SC2=C(O)CC(CCc3ccc(CO)s3)(C(C)C)OC2=O)c1` (racemic) [Example 55, 3-(2-tert-Butyl-5-methyl-phenylsulfanyl)-4-hydroxy-6-[2-(5-hydroxymethyl-thiophen-2-yl)-ethyl]-6-isopropyl-5,6-dihydro-pyran-2-one]: in series [1], the “TI (therapeutic index, TC50/EC50)” value is reported as 8 and the EC50 came to 8300 nM. The cytotoxic concentration (CC50) in series [2] worked out at 66000 nM. The Ki in series [3] was 1.7 nM.
For the molecule `Cc1csc(CCC2(C(C)C)CC(O)=C(Sc3cc(C)c(CO)cc3C(C)(C)C)C(=O)O2)n1` (stereo not shown) [Example 26, 3-(2-tert-Butyl-4-hydroxymethyl-5-methyl-phenylsulfanyl)-4-hydroxy-6-isopropyl-6-[2-(4-methyl-thiazol-2-yl)-ethyl]-5,6-dihydro-pyran-2-one], in series [1], the “TI (therapeutic index, TC50/EC50)” value turned out to be 213 and the EC50 turned out to be 800 nM. The midpoint of cytotoxicity in series [2], the CC50, lay at 171000 nM. Besides, in series [3] (setting [4]), the Ki was found to be 0.45 nM.
The matching figures for `Cc1cc(SC2=C(O)CC(CCc3cccs3)(C(C)C)OC2=O)c(C(C)(C)C)cc1CO` (stereo not shown) [Example 8, 3-(2-tert-Butyl-4-hydroxymethyl-5-methyl-phenylsulfanyl)-4-hydroxy-6-isopropyl-6-(2-thiophen-2-yl-ethyl)-5,6-dihydro-pyran-2-one]: 161, 500 nM, 80500 nM and 0.35 nM.
Take `CC(C)C1(CCc2ccsc2)CC(O)=C(Sc2cc3sc(N)nc3cc2C(C)(C)C)C(=O)O1` (racemic) [Example 82]: in series [1], the “TI (therapeutic index, TC50/EC50)” value was determined as 109 and the EC50 is 700 nM. Moreover, in series [2], the half-maximal cytotoxic concentration (CC50) was determined as 76000 nM. The Ki in series [3] worked out at 1.1 nM.
The matching figures for `Cc1cc(SC2=C(O)CC(CCc3ccc(CO)s3)(C(C)C)OC2=O)c(C(C)(C)C)cc1N` (racemic) [Example 38, 3-(4-Amino-2-tert-butyl-5-methyl-phenylsulfanyl)-4-hydroxy-6-[2-(5-hydroxymethyl-thiophen-2-yl)-ethyl]-6-isopropyl-5,6-dihydro-pyran-2-one]: 113, 1100 nM, 124000 nM and 0.33 nM.
The matching figures for `CC(C)c1cc2ncsc2cc1SC1=C(O)C[C@@](CCc2ccc(O)cc2)(C(C)C)OC1=O` [Example 48, (S)-4-Hydroxy-6-[2-(4-hydroxy-phenyl)-ethyl]-6-isopropyl-3-(5-isopropyl-benzothiazol-6-ylsulfanyl)-5,6-dihydro-pyran-2-one]: 78, 370 nM, 29000 nM and 0.4 nM.
In the case of `Cc1cc(SC2=C(O)CC(CCc3cc[nH]n3)(C(C)C)OC2=O)c(C(C)(C)C)cc1CO` (racemic) [Example 40, 3-(2-tert-Butyl-4-hydroxymethyl-5-methyl-phenylsulfanyl)-4-hydroxy-6-isopropyl-6-[2-(1H-pyrazol-3-yl)-ethyl]-5,6-dihydro-pyran-2-one], in series [1], the “TI (therapeutic index, TC50/EC50)” value is given as over 57 and the EC50 amounted to 5600 nM. This molecule also gave a CC50 in series [2] of over 320000 nM. The Ki in series [3] turned out to be 0.28 nM.
As for `Cc1cc(SC2=C(O)CC(CCc3ccsc3)(C(C)C)OC2=O)c(C(C)(C)C)cc1N` (racemic) [Example 35, 3-(4-Amino-2-tert-butyl-5-methyl-phenylsulfanyl)-4-hydroxy-6-isopropyl-6-(2-thiophen-3-yl-ethyl)-5,6-dihydro-pyran-2-one], in series [1], the “TI (therapeutic index, TC50/EC50)” value was 48 and the EC50 stood at 1500 nM. Besides, half-maximal cytotoxicity in series [2] (CC50) was put at 72000 nM. The inhibition constant (Ki) in series [3] was determined as 0.88 nM.
As for `CC(C)[C@]1(CCc2ccccc2)CC(O)=C(Sc2cc3cc[nH]c3cc2C(C)(C)C)C(=O)O1` [Example 73, (S)-3-(6-tert-Butyl-1H-indol-5-yl-sulfanyl)-4-hydroxy-6-isopropyl-6-(2-phenethyl)-5,6-dihydro-pyran-2-one], in series [1], the “TI (therapeutic index, TC50/EC50)” value is recorded as 69 and the EC50 is 610 nM. This molecule came in with a CC50 in series [2] of 42000 nM. Further, in series [3], the Ki is 0.54 nM.
Regarding `Cc1cc(SC2=C(O)CC(CCc3csc(N)n3)(C(C)C)OC2=O)c(C(C)(C)C)cc1CO` (racemic) [Example 89, 6-[2-(2-Amino-thiazol-4-yl)-ethyl]-3-(2-tert-butyl-4-hydroxymethyl-5-methyl-phenylsulfanyl)-4-hydroxy-6-isopropyl-5,6-dihydro-pyran-2-one], in series [1], the “TI (therapeutic index, TC50/EC50)” value is recorded as over 57 and the EC50 was 3500 nM. Further, the 50% cytotoxic concentration (CC50) in series [2] was over 200000 nM. Also, in series [3], the Ki amounted to 0.95 nM.
For `CC(C)C1(CCc2ccccc2CO)CC(O)=C(Sc2sc3ccccc3c2C(C)(C)C)C(=O)O1` (stereo not shown) [Example 22, 3-(3-tert-Butyl-benzo[b]thiophen-2-yl-sulfanyl)-4-hydroxy-6-[2-(2-hydroxymethyl-phenyl)-ethyl]-6-isopropyl-5,6-dihydro-pyran-2-one], in series [1], the “TI (therapeutic index, TC50/EC50)” value worked out at 43 and the EC50 was 1500 nM. Also, in series [2], the half-maximal cytotoxic concentration (CC50) came to 66000 nM. Further, the Ki in series [3] (setting [4]) is 0.85 nM.
For the molecule `Cc1cc(SC2=C(O)CC(CCc3csc(C(C)C)n3)(C(C)C)OC2=O)c(C(C)(C)C)cc1CO` (racemic) [Example 32, 3-(2-tert-Butyl-4-hydroxymethyl-5-methyl-phenylsulfanyl)-4-hydroxy-6-isopropyl-6-[2-(2-isopropyl-thiazol-4-yl)-ethyl]-5,6-dihydro-pyran-2-one], in series [1], the “TI (therapeutic index, TC50/EC50)” value was determined as 4 and the EC50 was 23000 nM. In series [2], this molecule registered a CC50 of 91000 nM. For the same molecule, the Ki in series [3] was determined as 1.6 nM.
The matching figures for `Cc1cc(SC2=C(O)CC(CCC3CCCO3)(C(C)C)OC2=O)c(C(C)(C)C)cc1N` (racemic) [Example 56, 3-(4-Amino-2-tert-butyl-5-methyl-phenylsulfanyl)-4-hydroxy-6-isopropyl-6-[2-(tetrahydro-furan-2-yl)-ethyl]-5,6-dihydro-pyran-2-one]: 21, 10000 nM, 210000 nM and 11 nM.
The matching figures for `Cc1c(F)cccc1CCC1(C(C)C)CC(O)=C(Sc2cc3sc(N)nc3cc2C(C)(C)C)C(=O)O1` (racemic) [Example 84, 3-(2-Amino-5-tert-butyl-benzothiazol-6-ylsulfanyl)-6-[2-(3-fluoro-2-methyl-phenyl)-ethyl]-4-hydroxy-6-isopropyl-5,6-dihydro-pyran-2-one]: 198, 470 nM, 93000 nM and 0.8 nM.
The matching figures for `Cc1cc(SC2=C(O)CC(CCc3ccsc3)(C(C)C)OC2=O)c(C(C)(C)C)cc1NS(=O)(=O)c1ccc(C(F)(F)F)cn1` (racemic) [Example 59, 5-Trifluoromethyl-pyridine-2-sulfonic acid {5-tert-butyl-4-[4-hydroxy-6-isopropyl-2-oxo-6-(2-thiophen-3-yl-ethyl)-5,6-dihydro-2H-pyran-3-ylsulfanyl]-2-methyl-phenyl}-amide]: 110, 600 nM, 66000 nM and 0.08 nM.
Turning to `Cc1cc(SC2=C(O)CC(CCc3sccc3C)(C(C)C)OC2=O)c(C(C)(C)C)cc1N` (racemic) [Example 65, 3-(4-Amino-2-tert-butyl-5-methyl-phenylsulfanyl)-4-hydroxy-6-isopropyl-6-[2-(3-methyl-thiophen-2-yl)-ethyl]-5,6-dihydro-pyran-2-one], in series [1], the “TI (therapeutic index, TC50/EC50)” value is on record as 54 and the concentration for a half-maximal effect (EC50) is 1100 nM. The CC50 in series [2] came to 60000 nM. The Ki in series [3] amounted to 1.2 nM.
As to `Cc1cc(SC2=C(O)CC(CCc3csc(CO)c3)(C(C)C)OC2=O)c(C(C)(C)C)cc1CO` (stereo not shown) [Example 9], in series [1], the “TI (therapeutic index, TC50/EC50)” value is given as 117 and the concentration for a half-maximal effect (EC50) worked out at 1800 nM. This molecule yielded a CC50 in series [2] of 210000 nM. Further, the inhibitory constant (Ki) in series [3] (setting [4]) came out at 0.19 nM.
